Data published in patent US12479792B2, “Compositions of chelating molecules” (The Regents of the University of California, priority 2016, dated 2025).

Experiments:
[1] = Abergel et al., Inorganic chemistry 2009; given for comparison; cited from earlier work
[2] = same conditions; Abergel et al., Inorganic chemistry 2009; cited from earlier work
[3] = Deblonde et al. 2013; Sturzbecher-Hoehne et al. 2015; cited from earlier work
[4] = Eu(III) complex formation constants by incremental spectrophotometric titration; type: binding
Procedure: (§1) Metal, Chelator Solutions. The trivalent lanthanide Ln(III) working stock solutions were prepared in standardized 0.1 M HCl. A Zr(IV) stock solution was prepared by dissolving ZrCl4 in 3.0 M H2SO4, to prevent hydrolysis. The metal salt ZrCl4 was handled and stored in a glovebox kept under inert atmosphere. The Zr(IV) stock solution was standardized against EDTA, with xylene orange as the indicator (Welcher, F. J. The analytical uses of ethylenediamine tetraacetic acid; 1958). A Th(IV) stock solution was prepared in 0.1 M H2SO4. Stock solutions (4 mM) of Ent, and 3,4,3-LI(CAM) were prepared by direct dissolution of a weighed portion of chelator in DMSO and aliquots were removed prior to each set of experiments.
(§2) Solution Thermodynamics. All titrant solutions were degassed by boiling for 1 h while being purged under Ar. Carbonate-free 0.1 M KOH was prepared from concentrate (J.T Baker Dilut-It) and was standardized by titrating against 0.1 M potassium hydrogen phthalate (99.95%, Sigma Aldrich). Solutions of 0.1 M HCl were similarly prepared and were standardized by titrating against TRIS (99.9%, J.T. Baker). The glass electrode (Metrohm-Micro Combi-response to [H+]) used for the pH measurements was calibrated at 25.0° C. and at an ionic strength of 0.1 M (KCl) before each potentiometric or spectrophotometric titration. The calibration data were analyzed using the program GLEE (Gans & O'Sullivan, Talanta, 2000, 51 (1): 33-37) to refine for the E° and slope. All thermodynamic measurements were conducted at 25.0° C., in 0.1 M KCl supporting electrolyte under positive Ar gas pressure. The automated titration system was controlled by an 867 pH Module (Metrohm). […]
(§3) Incremental Spectrophotometric Titrations. […] For the 3,4,3-LI(CAM) protonation (and Eu(III)-3,4,3-LI(CAM) complexes), titrations were performed with an initial concentration of 50 μM of 3,4,3-LI(CAM) (and 50 μM of Eu(III)) resulting in absorbance values included between 0 and 1.0 throughout the titration. […]

[5] = Zr(IV) complex formation constants by spectrophotometric competition titration in the presence of DTPA; type: binding
Procedure: as §1, §2, §3

[6] = Th(IV) complex formation constants by spectrophotometric competition titration in the presence of DTPA; type: binding
Procedure: as §1, §2, §3

SMILES: O=C(NCCCN(CCCCN(CCCNC(=O)c1cccc(=O)n1O)C(=O)c1cccc(=O)n1O)C(=O)c1cccc(=O)n1O)c1cccc(=O)n1O [3,4,3-LI(1,2-HOPO)]
- overall acidity ΣpKa5-8 [1]: 21.2
- pH at which Eu(III) species already appear [2]: 1
- pH at which 4+ metal complexes are formed [3]: < 0

SMILES: O=C(NCCCN(CCCCN(CCCNC(=O)c1cccc(O)c1O)C(=O)c1cccc(O)c1O)C(=O)c1cccc(O)c1O)c1cccc(O)c1O [3,4,3-LI(CAM)]
- log β110, stability constant of Eu(III) complex ([4]; I=0.1 M (KCl), T=25° C.): 29.7
- only Eu(III) species present at pH 7.4 ([4]; pH 7.4, speciation diagram, 1 equivalent of Eu(III)): [Eu^IIILH]^4−
- pH at which Eu(III) complexation starts ([4]; speciation diagram, 1 equivalent of Eu(III), [Eu]=[CAM]=10 μM, T=25° C., I=0.1 M, Hyss): 5
- log β110, stability constant of Zr(IV) complex ([5]; I=0.1 M (KCl), T=25° C.): 57.3
- predominant Zr(IV) species at physiological pH ([5]; pH 7.4, speciation diagram, 1 equivalent of Zr(IV)): [MIVLH]^3− and [MIVL]^4−
- pH at which Zr(IV) complexes start forming ([5]; speciation diagram, 1 equivalent of Zr(IV), [Zr]=[CAM]=10 μM, T=25° C., I=0.1 M, Hyss): ~3
- log β110, stability constant of Th(IV) complex ([6]; I=0.1 M (KCl), T=25° C.): 47.7
- predominant Th(IV) species at physiological pH ([6]; pH 7.4, speciation diagram, 1 equivalent of Th(IV)): [MIVLH]^3− and [MIVL]^4−
- pH at which Th(IV) complexes start forming ([6]; speciation diagram, 1 equivalent of Th(IV), [Th]=[CAM]=10 μM, T=25° C., I=0.1 M, Hyss): ~3
